23 molecules from patent publication US20050282818A1, “Ubiquitin ligase inhibitors” (Rigel Pharmaceuticals, Inc., priority 2004, published 2005) can be followed below.

One experiment relates to OVCAR8 cells. Description: Cell proliferation PAD assay, OVCAR8. It counts as cell-based. Conditions: Homo sapiens, OVCAR-8, 6pt, 48 hours. As for the experimental part:
(§1) Cell lines used are available from American Type Culture Collection (ATCC), for example, cell cultures containing A549 (ATCC# CCL-185), HeLa (ATCC# CCL-2), HCT116 ATTC# CCL-247), and H1299 (ATCC# CRL-5803) cells were maintained in T175 flasks following the ATCC recommended media and handling procedures. […] A 20,000 cells/ml solution was made for plating. Cells were plated in black Packard 96 well plates by placing 100 μl per well (2,000 cells per well). […] The definitions of the cell types used are as follows: A549 is lung carcinoma; HI 299 is non-small cell lung carcinoma; HI 155 is non-small cell lung carcinoma; AsPC-1 is pancreatic adenocarcinoma; Caov-3 is ovarian adenocarcinoma; COLO 205 is colorectal adenocarcinoma; DLD-1 colorectal adenocarcinoma; HCT116 is colorectal carcinoma; DU 145 is prostate carcinoma; ES-2 is ovarian clear cell carcinoma; H460 is large cell lung carcinoma; HELA is cervical adenocarcinoma; MIA PaCa-2 is pancreatice carcinoma; OVCAR-3 is ovarian adenocarcinoma; OVCAR8 is ovarian carcinoma; PC3 is prostate adenocarcinoma; SK-OV-3 is ovarian adenocarcinoma; SU86.86 is pancreatic carcinoma; TOV-21G is avarian clear cell carcinoma; U2OS is bone osteosarcoma; is ASPC-I is pancreatic adenocarcinoma; BXPC-3 is pabcreatic adenocarcinoma; HL60 is promyeloblast promyelocytic leukemia; K562 is bone marrow chronic myelogenous leukemia; L1210 is mouse lymphocytic leukemia; MOLT3 is T lymphoblast acute lymphoblastic leukemia; MOLT4 is T lymphoblast acute lymphoblastic leukemia; SW620 is colorectal adenocarcinoma; THP-1 is monocyte acute monocytic leukemia; U937 is histiocytic lymphoma; and UACC-257 is melanoma.
(§2) Compounds and additional media were added 24 hours after cell plating. […] All compound testing was done in duplicate using 6.3 fold dilutions starting with 10 mM. […] Taxol and at least one additional control were run on all plates. Three microliters of the compound master plate were added to deep well blocks containing 750 μl of RPMI media. One hundred microliters were transferred from the compound/media deep well blocks to the plated cells resulting in a 500 fold dilution of the compounds. Cells were grown at 37° C., 5% CO2 for 48 hours.
(§3) Cells to be analyzed by photography were fixed and stained. One hundred microliters of media were removed and 100 μl of 9.3% formamide was added to each well. Plates were left on the benchtop for 45 minutes. A staining solution containing 1.55 μl of 1 mg/ml DAPI added to 18.75 ml PBS was warmed for 15 minutes at 37° C. The cells were aspirated prior to washing with 100 μl of PBS. Seventy microliters of PBS were aspirated and 170 μl of the DAPI solution were added to each well of fixed cells. Plates were left at room temperature for one hour then aspirated and washed twice with 100 μl of PBS. The stained cells were left at 4° C. for a minimum of 16 hours before photographic analysis with Array Scan II (Cellomics). Analysis of the photographic images to determine numbers of live cells (proliferation), apoptotic cells and dead cells, were according to the methods described in U.S. Utility patent application Ser. No. 10/652,440, which incorporated herein in its entirety.

The test system of another experiment is UACC-257 cells. Put plainly: Cell proliferation PAD assay, UACC-257. It counts as cell-based. Particulars: Homo sapiens, UACC257 cells, 6pt, 48 hours. As for the experimental part:
as §1, §2, §3

A further experiment deals with T1, ROC1/CUL1 (Homo sapiens, UniProt P62877+Q13616).
T1 construct: made in house
Description: ROC1/CUL1 ubiquitin ligase assay (SCF assay). It counts as biochemical. As for the experimental part: Inhibition of ubiquitin ligase activity of E1+E2+E3 was measured using the protocol as described in WO 01/75145 with E3 as the ROC1/CUL1, ROC1/CUL2, or ROC2/CUL5 complex.
The wells of nickel-substrate 96-well plates (Pierce Chemical) are blocked with 100 μl of 1 casein/phosphate buffered saline (PBS) for 1 hour at room temperature, then washed with 200 μl of PBST (0.1% Tween-20 in PBS) 3 times. To each well is added the following Flag-ubiquitin (see above) reaction solution: 62.5 mM Tris pH 7.5, 6.25 mm MgCl2, 0.75 mM DTT, 2.5 mM ATP, 2.5 mM NaF1, 2.5 nM Okadaic acid, 100 ng Flag-ubiquitin (made as described above).
The buffer solution is brought to a final volume of 80 μl with Milipore-filtered water, followed by the addition of 10 μl DMSO.
To the above solution is then added 10 μl of ubiquitination enzymes in 20 mM Tris buffer, pH 7.5, and 5% glycerol. E2-Ubch5c and E3-His ROC1/Cul1, ROC1/CUL2, and ROC2/CUL5 are made as described in WO 01/75145. E1 is obtained commercially (Affiniti Research Products, Exeter, U. K.). The following amounts of each enzyme are used for these assays: 5 ng/well of E1; […] E2; and 100 ng/well His-E3. Varying amounts of compounds according to the invention are added and the reaction allowed to proceed at room temperature for 1 hour.
Following the ubiquitination reaction, the wells are washed with 200 μl of PBST 3 times. For measurement of the enzyme-bound ubiquitin, 100 gel of Mouse anti-Flag (1:10,000) and anti-Mouse Ig-HRP (1:15, 000) in PBST are added to each well and allowed to incubate at room temperature for 1 hour. The wells are then washed with 200 μl of PBST 3 times, followed by the addition of 100 μl of luminol substrate (1/5 dilution). Luminescence for each well is then measured using a fluorimeter.
Table 2 below illustrates the inhibitory activity of the compounds of the invention determined by the TRAF6/Uev1A/Ubc13 assay as well as in the ICAM, APC and the ROC1/CUL1 Ubiquitin Ligase Assay (SCF Assay). The IC50 values were determined using a various concentrations of the compounds.

T1 sequence (P62877 whole entry): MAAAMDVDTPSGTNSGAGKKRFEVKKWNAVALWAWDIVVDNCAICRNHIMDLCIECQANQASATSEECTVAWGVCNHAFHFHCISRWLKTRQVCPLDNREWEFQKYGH
T1 sequence (Q13616 whole entry): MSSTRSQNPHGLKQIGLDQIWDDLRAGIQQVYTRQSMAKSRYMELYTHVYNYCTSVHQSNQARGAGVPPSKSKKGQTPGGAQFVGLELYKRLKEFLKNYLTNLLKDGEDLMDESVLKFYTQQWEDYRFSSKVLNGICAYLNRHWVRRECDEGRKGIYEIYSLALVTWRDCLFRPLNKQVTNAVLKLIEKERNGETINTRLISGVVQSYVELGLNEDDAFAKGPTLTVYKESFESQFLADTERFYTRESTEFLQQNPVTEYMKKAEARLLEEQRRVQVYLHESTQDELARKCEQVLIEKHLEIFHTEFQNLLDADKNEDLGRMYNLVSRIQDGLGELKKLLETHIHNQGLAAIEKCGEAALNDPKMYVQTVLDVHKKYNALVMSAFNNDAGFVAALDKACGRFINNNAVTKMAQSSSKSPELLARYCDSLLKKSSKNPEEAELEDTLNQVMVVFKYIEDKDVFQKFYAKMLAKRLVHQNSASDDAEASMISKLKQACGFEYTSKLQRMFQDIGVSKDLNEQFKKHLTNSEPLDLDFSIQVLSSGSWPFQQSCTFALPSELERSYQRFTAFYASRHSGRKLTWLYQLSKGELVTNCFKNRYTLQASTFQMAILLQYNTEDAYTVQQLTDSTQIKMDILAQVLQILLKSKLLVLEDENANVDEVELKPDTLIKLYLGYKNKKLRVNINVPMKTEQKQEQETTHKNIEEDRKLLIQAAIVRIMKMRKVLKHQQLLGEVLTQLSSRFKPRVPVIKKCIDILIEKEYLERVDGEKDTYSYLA

The IC50 is the concentration needed to halve the response being measured. `O=[N+]([O-])c1ccc(N2CCN(c3ccc(O)cc3)CC2)c2nonc12` [compound 146, 4-[4-(7-nitro-2,1,3-benzoxadiazol-4-yl)piperazin-1-yl]phenol]: the IC50 in the experiment on OVCAR8 cells and in the experiment on UACC-257 cells was 1 to 20 µM in each case.

For `O=S(=O)(Nc1cccc2nonc12)c1ccc(Oc2ncc(C(F)(F)F)cc2Cl)cc1` [compound 78, N-2,1,3-benzoxadiazol-4-yl-4-{[3-chloro-5-(trifluoromethyl)pyridin-2-yl]oxy}benzenesulfonamide], the IC50 in the experiment with OVCAR8 cells and with UACC-257 cells was 1 to 20 µM each time.

Consider `N#CC1(c2ccccc2)CCN(c2ccc([N+](=O)[O-])c3nonc23)CC1` [compound 141, 1-(7-nitro-2,1,3-benzoxadiazol-4-yl)-4-phenylpiperidine-4-carbonitrile], for which the IC50 in the experiment on OVCAR8 cells and in the experiment on UACC-257 cells was at least 20 µM each time.

Regarding `O=[N+]([O-])c1ccc(N2CCN(c3cc(C(F)(F)F)ccn3)CC2)c2nonc12` [compound 90, 4-nitro-7-{4-[4-(trifluoromethyl)pyridin-2-yl]piperazin-1-yl}-2,1,3-benzoxadiazole], the IC50 in the experiment with OVCAR8 cells and in the experiment on UACC-257 cells was at least 20 µM throughout.

Take `O=C(c1ccc(F)cc1)C1CCN(c2ccc([N+](=O)[O-])c3nonc23)CC1` [compound 142, (4-fluorophenyl)[1-(7-nitro-2,1,3-benzoxadiazol-4-yl)piperidin-4-yl]methanone]: the IC50 in the experiment with OVCAR8 cells and with UACC-257 cells was 1 to 20 µM in each case.

Take `Cc1ccc(N2CCN(c3ccc([N+](=O)[O-])c4nonc34)CC2)cc1C` [compound 140, 4-[4-(3,4-dimethylphenyl)piperazin-1-yl]-7-nitro-2,1,3-benzoxadiazole]: the IC50 in the experiment on OVCAR8 cells and in the experiment on UACC-257 cells was 1 to 20 µM throughout.

Turning to `O=[N+]([O-])c1ccc(Sc2nc3ccccc3s2)c2nonc12` [compound 158, 4-(1,3-benzothiazol-2-ylthio)-7-nitro-2,1,3-benzoxadiazole], the IC50 in the experiment on OVCAR8 cells and with UACC-257 cells was 1 to 20 µM in each case.

With `CC(=O)N1CCN(S(=O)(=O)c2c(Sc3cccc4cccnc34)ccc3nonc23)CC1` [compound 214, 8-({4-[(4-acetylpiperazin-1-yl)sulfonyl]-2,1,3-benzoxadiazol-5-yl}thio)quinoline], on ROC1/CUL1, the IC50 was at least 20 µM.

`O=S(=O)(Nc1cccc(F)c1)c1ccc(Cl)c2nonc12` [compound 263, 7-chloro-N-(3-fluorophenyl)-2,1,3-benzoxadiazole-4-sulfonamide] displayed an IC50 against ROC1/CUL1 of at least 20 µM.

Turning to `O=S(=O)(Nc1ccc(F)c(F)c1)c1ccc(Cl)c2nonc12` [compound 262, 7-chloro-N-(3,4-difluorophenyl)-2,1,3-benzoxadiazole-4-sulfonamide], the IC50 against ROC1/CUL1 is at least 20 µM.

Regarding `N#Cc1ccc(N2CCN(S(=O)(=O)c3c(Cl)ccc4nonc34)CC2)nc1` [compound 209, 6-{4-[(5-chloro-2,1,3-benzoxadiazol-4-yl)sulfonyl]piperazin-1-yl}nicotinonitrile], on ROC1/CUL1, the IC50 was at least 20 µM.

As for `Cc1cc(C)cc(-c2cccc3nonc23)c1` [compound 285, 4-(3,5-Dimethylphenyl)-2,1,3-benzoxadiazole], the IC50 at ROC1/CUL1 is at least 20 µM.

Take `CC1CC(C)CN(S(=O)(=O)c2ccc(Cl)c3nonc23)C1` (centres unmarked) [compound 192, 4-chloro-7-[(3,5-dimethylpiperidin-1-yl)sulfonyl]-2,1,3-benzoxadiazole]: at ROC1/CUL1, the IC50 was at least 20 µM.

For `O=[N+]([O-])c1ccc(N2CCN(c3ncccc3C(F)(F)F)CC2)c2nonc12` [compound 148, 4-nitro-7-{4-[3-(trifluoromethyl)pyridin-2-yl]piperazin-1-yl}-2,1,3-benzoxadiazole], the IC50 in the experiment with OVCAR8 cells and with UACC-257 cells was 1 to 20 µM each time.

`CCOC(=O)c1cc(C#N)c(C)nc1N1CCN(c2ccc([N+](=O)[O-])c3nonc23)CC1` [compound 153, ethyl 5-cyano-6-methyl-2-[4-(7-nitro-2,1,3-benzoxadiazol-4-yl)piperazin-1-yl]nicotinate]: the IC50 in the experiment with OVCAR8 cells and in the experiment with UACC-257 cells was at least 20 µM throughout.

As for `O=[N+]([O-])c1ccc(N2CCN(c3ncc(C(F)(F)F)cc3Cl)CC2)c2nonc12` [compound 315, 4-{4-[3-chloro-5-(trifluoromethyl)pyrindin-2-yl]piperazin-1-yl}-7-nitro-2,1,3-benzoxadiazole], the IC50 was 1 to 20 µM in the experiment on OVCAR8 cells and at least 20 µM in the experiment on UACC-257 cells.

For the molecule `O=[N+]([O-])c1ccc(N2CCC(O)(c3ccc(Cl)cc3)CC2)c2nonc12` [compound 159, 4-(4-chlorophenyl)-1-(7-nitro-2,1,3-benzoxadiazol-4-yl)piperidin-4-ol], the IC50 is 1 to 20 µM in the experiment with OVCAR8 cells and at least 20 µM in the experiment on UACC-257 cells.

On to `O=[N+]([O-])c1ccc(Oc2c(Cl)cc(S(=O)(=O)Nc3cccc4nsnc34)cc2Cl)c(Cl)c1` [compound 73, N-2,1,3-benzothiadiazol-4-yl-3,5-dichloro-4-(2-chloro-4-nitrophenoxy)benzenesulfonamide], for which the IC50 in the experiment on OVCAR8 cells and in the experiment with UACC-257 cells was at least 20 µM each time.

The molecule `O=S(=O)(c1ccc(Sc2ccc(O)cc2)c2nonc12)N1CCC(Oc2ncccn2)CC1` [compound 226, 4-[(7-{[4-(pyrimidin-2-yloxy)piperidin-1-yl]sulfonyl}-2,1,3-benzaxadiazol-4-yl)thio]phenol] gave an IC50 against ROC1/CUL1 of at least 20 µM.

`O=[N+]([O-])c1ccc(Sc2cccc3cccnc23)c2nonc12` [compound 5, 8-[(7-Nitro-2,1,3-benzoxadiazol-4-yl)thio]quinoline]: the IC50 in the experiment on OVCAR8 cells and in the experiment with UACC-257 cells was under 1 µM throughout.

`CC1CC(C)CN(c2ccc([N+](=O)[O-])c3nonc23)C1` (centres unmarked) [compound 144, 4-(3,5-dimethylpiperidin-1-yl)-7-nitro-2,1,3-benzoxadiazole]: the 50% inhibitory concentration (IC50) in the experiment on OVCAR8 cells and in the experiment with UACC-257 cells was at least 20 µM throughout.

Turning to `Cc1ccc(Cl)cc1N1CCN(c2ccc([N+](=O)[O-])c3nonc23)CC1` [compound 145, 4-[4-(5-chloro-2-methylphenyl)piperazin-1-yl]-7-nitro-2,1,3-benzoxadiazole], the IC50 in the experiment on OVCAR8 cells and with UACC-257 cells was at least 20 µM throughout.

In the case of `N#CC1(c2ccccc2)CCN(S(=O)(=O)c2ccc(O)c3nonc23)CC1` [compound 199, 1-[(7-hydroxy-2,1,3-benzoxadiazol-4-yl)sulfonyl]-4-phenylpiperidine-4-carbonitrile], the IC50 at ROC1/CUL1 is at least 20 µM.
